Assay results: patent publication US11452303B2, “Methods for feeding sows and for improving the health of young piglets” (PURINA ANIMAL NUTRITION LLC, priority 2003, dated 2022)
“And” between values parts separate entries of the source, which are not always exact repeats. Equal entries are not always repeated. Marks after values point to notes of the source that are not given here.

What was measured:
nursing piglets = test: Litter performance: number of nursing piglets and piglet mortality in litters of lactating sows fed sorbitol; format: in vivo, swine
Experimental: (§1) In this example, sixty-two (62) lactating sows were subjected to one of three different feeding trials that each began shortly (within 48 hours) after the lactating sows gave birth to piglets (i.e.: shortly after farrowing) and extended to the day the different piglets were wearied from the respective sows. The purpose of this example was to evaluate the effect of feeding lactating sows varying amounts of sugar alcohol, or no sugar alcohol, on subsequent piglet litter performance parameters, such as mortality prior to weaning and litter weight gain during the pre-weaning period. Sorbitol was used as the sugar alcohol in this example.
Immediately after farrowing, twenty sows were randomly assigned to the Control, twenty-one sows were randomly assigned to Trial A, and twenty-one sows were randomly assigned to Trial B. Sow assignment did take into account parity (number of litters per sow) to artificially balance parity across the Control, Trial A, and Trial B. The different sows of the Control, Trial A, and Trial B had parities ranging from one to more than two. Additionally, litter size was equalized between the different sows of the Control, Trial A, and Trial B within forty-eight hours after farrowing to assure that all sows, whether assigned to the Control, Trial A or Trial B, had the same, or about the same, number of nursing piglets. The reason for waiting forty-eight hours before cross-fostering in this fashion was to assure each piglet received colostrum from their original dam.
(§2) In Trial A, each of the lactating sows received the control feed plus about twenty-six grams of sorbitol per day. In Trial B, each of the lactating sows received the control feed plus about fifty-two grams of sorbitol per day.
The lactating sows of both Trial A and Trial B received the same daily amount of control feed that was fed to the lactating sows of the Control with the exception that two pounds of the control feed provided daily to the lactating sows of both Trial A and Trial B were replaced with two pounds of a sorbitol-coated control feed (hereinafter referred to as “top-dressed control feed”). To create the top-dressed control feed, liquid sorbitol was heated to a temperature ranging from about 100° F. and about 120° F. The heated liquid sorbitol was then sprayed over a batch of about three hundred to four hundred pounds of the control feed and thoroughly mixed to form the top-dressed control feed. Following mixing, the top-dressed control feed was divided and separately bagged in two pound increments. An appropriate ratio of the liquid sorbitol to the control feed was selected for the top-dressed control feed destined for the Trial A lactating sows to assure that each two pound allotment of the control feed destined for the Trial A lactating sows included about twenty-six grams of sorbitol. Likewise, an appropriate ratio of the liquid sorbitol to the control feed was selected for the top-dressed control feed destined for the Trial B lactating sows to assure that each two pound allotment of the top-dressed control feed destined for the Trial B lactating sows included about fifty-two grams of sorbitol.
During the feeding trial of this example, the top dressed control feed was applied three times daily to the balance of the control feed being provided individually at that feeding to the individual lactating sows of Trial A and Trial B. Approximately one-third of the top-dressed control feed was provided to the sows in the morning feeding, approximately one-third of the top dressed control feed was provided to the lactating sows in the noon feeding, and the remaining approximate one-third of the top-dressed control feed was provided to the sows in the afternoon feeding. The twenty-one sows of Trial A each received a total of about two pounds of the top-dressed control feed containing about 26 grams of sorbitol per day. […]

[1] = Litter performance: total litter live weight and mean individual piglet weight; format: in vivo, swine
Experimental: In each of the Examples provided below, each piglet was weighed two days after birth, fourteen days after birth, and again at weaning. All data that is provided in Tables 4-9 below for the lactating sows is based upon individual data for each lactating sow, then-present, as least square means of the particular data over all lactating sows present in the test at the time the particular data was recorded. All data that is provided in Tables 4-9 below for the piglets is based upon data for each litter of piglets, then-present, as least square means of the particular data over all piglets of the litter present in the test at the time the particular data was recorded. Data for parameters presented in Tables 4-9 was analyzed using the general linear model (GLM) statistical procedure of SAS™ statistical analysis software for a randomized complete block design that included both the particular Iced regimen and the week of the test period in the model statement. The SAS™ statistical analysis software is available from SAS Institute, Inc. of Cary, N.C. Additionally, all data was analyzed to determine the mean of the data for each variable under consideration during the collection period for the particular data.
as §1, §2
Additionally, the collective body weights of the piglets assigned to each lactating sow of the three different trials were measured and recorded on day two post-farrowing (about forty-eight hours after farrowing), on day fourteen post-farrowing (fourteen days after farrowing), and on the day the piglets were weaned. The mean body weight values for each individual piglet of the three different trials were derived for each piglet individually from the weight data recorded for each piglet litter by dividing the collective litter weight determined for a particular litter by the total number of piglets then-present in the litter to attain the mean individual piglet weights on day two post-farrowing (about forty-eight hours after farrowing), on day fourteen post-farrowing (fourteen days after farrowing), and on the day the piglets were weaned.
In this example, the data from Example 1 was analyzed to remove data attributable to sows with a parity of only one. Parity refers to the number of litters a sow has previously given birth to during its life. Gilts or first-parity sows typically consume approximately fifteen to twenty percent less feed during lactation and also typically produce less milk than sows with parities greater than one. The litters of parity one sows also tend to have lower weaning weights and more health problems than the litters of sows with parities greater than one. The purpose of looking at the Example 1 data, as re-analyzed to remove the effect of parity one data, is to determine the influence of natural differences in feed intake and litter performance of parity one sows on the data presented in Example 1 above. Removing the data contributed by the […] parity one sows in Example 1, left the Control with fourteen sows of parity two or higher, left Trial A with sixteen sows of parity two or higher, and left Trial B with sixteen sows of parity two or higher. […]

[2] = Trial A, 26 grams sorbitol per day, Parity ≥ 1, At Weaning
[3] = Trial A, 26 grams sorbitol per day, Parity ≥ 1, Day 14
[4] = Trial A, 26 grams sorbitol per day, Parity ≥ 1, day one post-farrowing to weaning
[5] = Trial A, 26 grams sorbitol per day, Parity ≥ 1, day one to day fourteen post-farrowing
[6] = Trial A, 26 grams sorbitol per day, Parity ≥2, At Weaning
[7] = Trial A, 26 grams sorbitol per day, Parity ≥2, Day 2
[8] = Trial A, 26 grams sorbitol per day, Parity ≥2, Day 14
[9] = Trial A, 26 grams sorbitol per day, Parity ≥ 2, day one post-farrowing to weaning
[10] = Trial A, 26 grams sorbitol per day, Parity ≥ 2, day one to day fourteen post-farrowing
[11] = Trial B, 52 grams sorbitol per day, Parity ≥ 1, At Weaning
[12] = Trial B, 52 grams sorbitol per day, Parity ≥ 1, Day 14
[13] = Trial B, 52 grams sorbitol per day, Parity ≥ 1, day fourteen post-farrowing to weaning
[14] = Trial B, 52 grams sorbitol per day, Parity ≥ 1, day one post-farrowing to weaning
[15] = Trial B, 52 grams sorbitol per day, Parity ≥ 1, day one to day fourteen post-farrowing
[16] = Trial B, 52 grams sorbitol per day, Parity ≥2, At Weaning
[17] = Trial B, 52 grams sorbitol per day, Parity ≥2, Day 2
[18] = Trial B, 52 grams sorbitol per day, Parity ≥2, Day 14
[19] = Trial B, 52 grams sorbitol per day, Parity ≥ 2, day one post-farrowing to weaning
[20] = Trial B, 52 grams sorbitol per day, Parity ≥ 2, day one to day fourteen post-farrowing
[21] = Trial A, 26 grams sorbitol per day, Parity ≥ 1, Day 2
[22] = Trial B, 52 grams sorbitol per day, Parity ≥ 1, Day 2

## OC[C@@H](O)[C@@H](O)[C@H](O)[C@@H](O)CO [sorbitol]
Nursing piglets; Trial A, 26 grams sorbitol per day to sows, Parity ≥ 1, Day 2
  Number of Nursing Piglets: 10.57
Nursing piglets; [2]
  Number of Nursing Piglets: 9.95
Nursing piglets; Trial A, 26 grams sorbitol per day, Parity ≥ 1, Day 1 to Day 14
  Percentage Piglet Mortality: 3.99% and 3.99^c percent
Nursing piglets; Trial A, 26 grams sorbitol per day, Parity ≥ 1, Day 1 to Weaning
  Percentage Piglet Mortality: 5.69% and 5.69^c percent
Nursing piglets; [3]
  Number of Nursing Piglets: 10.14
Nursing piglets; Trial A, 26 grams sorbitol per day, Parity ≥ 1, Day 14 to weaning
  Percentage Piglet Mortality: 1.74^d percent
Nursing piglets; [4]
  piglet mortality drop versus Control: 47.07%
  piglet mortality percentage drop versus Control: 5.06 percentage points
Nursing piglets; [5]
  piglet mortality drop versus Control: 54.97%
  piglet mortality percentage drop versus Control: 4.87 percentage points
Nursing piglets; [6]
  Number of Nursing Piglets: 10.01
Nursing piglets; Trial A, 26 grams sorbitol per day, Parity ≥2, Day 1 to Day 14
  Percentage Piglet Mortality: 3.52% and 3.52^c percent
Nursing piglets; Trial A, 26 grams sorbitol per day, Parity ≥2, Day 1 to Weaning
  Percentage Piglet Mortality: 4.69% and 4.69^c percent
Nursing piglets; [7]
  Number of Nursing Piglets: 10.51
Nursing piglets; [8]
  Number of Nursing Piglets: 10.14
Nursing piglets; Trial A, 26 grams sorbitol per day, Parity ≥2, Day 14 to weaning
  Percentage Piglet Mortality: 1.23%
Nursing piglets; [9]
  piglet mortality drop versus Control: 63.27%
  piglet mortality percentage drop versus Control: 8.08 percentage points
Nursing piglets; [10]
  piglet mortality drop versus Control: 67.20%
  piglet mortality percentage drop versus Control: 7.21 percentage points
Nursing piglets; Trial B, 52 grams sorbitol per day to sows, Parity ≥ 1, Day 2
  Number of Nursing Piglets: 10.50
Nursing piglets; [11]
  Number of Nursing Piglets: 10.03
Nursing piglets; Trial B, 52 grams sorbitol per day, Parity ≥ 1, Day 1 to Day 14
  Percentage Piglet Mortality: 4.61% and 4.61^e percent
Nursing piglets; Trial B, 52 grams sorbitol per day, Parity ≥ 1, Day 1 to Weaning
  Percentage Piglet Mortality: 4.60% and 4.60^c percent
Nursing piglets; [12]
  Number of Nursing Piglets: 10.0
Nursing piglets; Trial B, 52 grams sorbitol per day, Parity ≥ 1, Day 14 to weaning
  Percentage Piglet Mortality: 0.00% and 0.00^e percent
Nursing piglets; [13]
  piglet mortality drop versus Control: 100%
  piglet mortality percentage drop versus Control: 2.09 percentage points
Nursing piglets; [14]
  piglet mortality drop versus Control: 57.21%
  piglet mortality percentage drop versus Control: 6.15 percentage points
Nursing piglets; [15]
  piglet mortality drop versus Control: 47.97%
  piglet mortality percentage drop versus Control: 4.25 percentage points
Nursing piglets; [16]
  Number of Nursing Piglets: 10.02
Nursing piglets; Trial B, 52 grams sorbitol per day, Parity ≥2, Day 1 to Day 14
  Percentage Piglet Mortality: 5.68% and 5.68^c percent
Nursing piglets; Trial B, 52 grams sorbitol per day, Parity ≥2, Day 1 to Weaning
  Percentage Piglet Mortality: 5.71% and 5.71^c percent
Nursing piglets; [17]
  Number of Nursing Piglets: 10.62
Nursing piglets; [18]
  Number of Nursing Piglets: 10.02
Nursing piglets; Trial B, 52 grams sorbitol per day, Parity ≥2, Day 14 to weaning
  Percentage Piglet Mortality: 0.00%
Nursing piglets; [19]
  piglet mortality drop versus Control: 55.29%
  piglet mortality percentage drop versus Control: 7.06 percentage points
Nursing piglets; [20]
  piglet mortality drop versus Control: 47.06%
  piglet mortality percentage drop versus Control: 5.05 percentage points
[1]; [2]
  Mean Weight of Individual Piglets: 14.80 pounds
  Total Live Weight of Litter: 147.53^de pounds
[1]; [21]
  Mean Weight of Individual Piglets: 4.11 pounds
  Total Live Weight of Litter: 43.29 pounds
[1]; [3]
  Mean Weight of Individual Piglets: 10.59 pounds
  Total Live Weight of Litter: 107.85 pounds
[1]; [6]
  Mean Weight of Individual Piglets: 15.02 pounds
  Total Live Weight of Litter: 150.42^bc pounds
[1]; [7]
  Mean Weight of Individual Piglets: 4.14 pounds
  Total Live Weight of Litter: 43.37 pounds
[1]; [8]
  Mean Weight of Individual Piglets: 10.82 pounds
  Total Live Weight of Litter: 109.76 pounds
[1]; [11]
  Mean Weight of Individual Piglets: 15.55 pounds
  Total Live Weight of Litter: 154.81 pounds and 154.81^e pounds
[1]; [22]
  Mean Weight of Individual Piglets: 3.90 pounds
  Total Live Weight of Litter: 41.17 pounds
[1]; [12]
  Mean Weight of Individual Piglets: 10.39 pounds
  Total Live Weight of Litter: 104.39 pounds
[1]; [16]
  Mean Weight of Individual Piglets: 16.03 pounds
  Total Live Weight of Litter: 159.86 pounds and 159.86^c pounds
[1]; [17]
  Mean Weight of Individual Piglets: 4.18 pounds
  Total Live Weight of Litter: 44.48 pounds
[1]; [18]
  Mean Weight of Individual Piglets: 10.87 pounds
  Total Live Weight of Litter: 109.25 pounds
